Assay [1] deals with KRas G12C (Homo sapiens, UniProt P01116, C118S/C51S/C80L/G12C). The experiment in a line: KRas G12C Modification Assay (LCMS detection of covalent adduct). It is filed as binding. As to conditions: normalized percent of control; 5 μM concentration for 3 hours. As to the method:
A 10 μL aliquot of each protein solution was then transferred to a 384 well microtiter plate. Initial compound stocks were generated at fifty times their desired final assay concentration in DMSO.
Exemplary compounds of Formula (I) were diluted 25-fold into K-Ras Assay Buffer to a final of two times their final concentration. A 10 μL aliquot of each diluted compound solution was then added to each of the protein solutions in the microtiter plate to initiate reaction. […] At each time point, the reactions were quenched with 20 μL of a 25 mM acetic acid solution. […] Once all reactions were quenched, the plates were heat sealed and the samples were injected into a LC/MS system for data acquisition.
Samples were injected in their liquid phase onto a C-3 reverse phase column to remove assay buffer and prepare the samples for mass spectrometer. The proteins were eluted from the column using an acetonitrile gradient and fed directly into the mass analyzer. Initial raw data analysis took place in Agilent MassHunter software immediately post data acquisition.
Raw data analysis of the intact protein was exclusively a deconvolution of the multiple charge states of each protein in solution using a maximum entropy deconvolution provided in Mass Hunter. To minimize complexity, only the data over limited mass ranges were considered for analysis, with a minimum of one Dalton mass step intervals. The heights of all masses identified during raw data analysis were exported to be further analyzed in Spotfire® data analysis software.
Final data analysis was a multistep process in the Spotfire® data analysis software package. Briefly, each protein mass was calculated as a percent of the total signal of that sample, that percentage was then normalized to the percentage of signal of the protein in the absence of reactive compounds. Those normalized signals were reported as normalized percent of control (POC). […] Key: “A”≤25% POC; “B”>25% POC-≤50% POC; “C”>50% POC and ND=not determined.

Assay [2] deals with KRas G12C (Homo sapiens, UniProt P01116, G12C). The experiment in a line: Cellular inhibition of KRas G12C measured by Phospho-ERK in NCI-H358 cells. Format: cell-based. The note with it: pERK(Thr202/Tyr204) normalized with GAPDH, NCI-H358 cells, 3 hours; read-out: IC50. In a few lines:
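NCI-H358 cells were allowed to attach for 8-12 hours, then exposed to compounds for 3 hours at 0.5% DMSO final. After formaldehyde fixation and methanol permeabilization, phospho-ERK (Thr202/Tyr204) was detected by in-cell immunofluorescence and normalized to GAPDH; IC50 came from a 4-parameter fit of percent-of-DMSO values.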

Structures are written as SMILES.

In US10689377B2 (Mirati Therapeutics, Inc., priority 2017, dated 2020) one finds POC and IC50 data, which are given here for 17 compounds.

Consider `C=C(F)C(=O)N1CCN(c2nc(OC[C@H]3C[C@@H](OC)CN3C)nc3c2CCN(c2cccc4cccc(Cl)c24)C3)C[C@@H]1CC#N` [Example 576, 2-[(2S)-4-[7-(8-Chloro-1-naphthyl)-2-[[(2R,4R)-4-methoxy-1-methyl-pyrrolidin-2-yl]methoxy]-6,8-dihydro-5H-pyrido[3,4-d]pyrimidin-4-yl]-1-(2-fluoroprop-2-enoyl)piperazin-2-yl]acetonitrile], for which, on KRas G12C [1], the POC result was “C (“C”>50% POC)”. Further, on KRas G12C [2], the IC50 (as a rule, the midpoint of a concentration-inhibition curve) was in the range of 0.1 to 1000 nM.

`C=C(F)C(=O)N1CCN(c2nc(OC[C@@H]3CCN(C)C3)nc3c2CCN(c2cccc4cccc(Cl)c24)C3)C[C@@H]1CC#N` [Example 575, 2-[(2S)-4-[7-(8-Chloro-1-naphthyl)-2-[[(3R)-1-methylpyrrolidin-3-yl]methoxy]-6,8-dihydro-5H-pyrido[3,4-d]pyrimidin-4-yl]-1-(2-fluoroprop-2-enoyl)piperazin-2-yl]acetonitrile]: the POC entry at KRas G12C [1] was “C (“C”>50% POC)”. Moreover, the IC50 on KRas G12C [2] was in the range of 0.1 to 1000 nM.

Consider `C=C(F)C(=O)N1CCN(c2nc(OC[C@@H]3CCCN3C)nc3c2CCN(c2cncc(Cl)c2C(F)(F)F)C3)C[C@@H]1CC#N` [Example 600, 2-((S)-4-(7-(5-Chloro-4-(trifluoromethyl)pyridin-3-yl)-2-(((S)-1-methylpyrrolidin-2-yl)methoxy)-5,6,7,8-tetrahydropyrido[3,4-d]pyrimidin-4-yl)-1-(2-fluoroacryloyl)piperazin-2-yl)acetonitrile], for which, on KRas G12C [1], the POC entry was “C (“C”>50% POC)”. At KRas G12C [2], the IC50 lay in the range of 0.1 to 1000 nM.

For `C=CC(=O)N1CCN(c2nc(OC[C@@H]3CCCN3C)nc3c2CCN(c2ccccc2C(F)(F)F)C3)CC1CC#N` (stereo partly drawn) [Example 210, 2-(1-acryloyl-4-(2-(((S)-1-methylpyrrolidin-2-yl)methoxy)-7-(2-(trifluoromethyl)phenyl)-5,6,7,8-tetrahydropyrido[3,4-d]pyrimidin-4-yl)piperazin-2-yl)acetonitrile], the POC entry at KRas G12C [1] is given as “C (“C”>50% POC)”. Further, the IC50 at KRas G12C [2] lay within 0.1 to 1000 nM.

For the compound `C=C(F)C(=O)N1CCN(c2nc(OC[C@@H]3CCCN3C)nc3c2CCN(c2cccc4cccc(Br)c24)C3)C[C@@H]1CC#N` [Example 588, 2-((S)-4-(7-(8-Bromonaphthalen-1-yl)-2-(((S)-1-methylpyrrolidin-2-yl)methoxy)-5,6,7,8-tetrahydropyrido[3,4-d]pyrimidin-4-yl)-1-(2-fluoroacryloyl)piperazin-2-yl)acetonitrile], the POC result at KRas G12C [1] is given as “C (“C”>50% POC)”. Moreover, at KRas G12C [2], the IC50 is 0.1 to 1000 nM.

For `C=CC(=O)N1CCN(c2nc(OCCCO)nc3c2CCN(c2cccc4ccccc24)C3)CC1CC#N` (stereo not shown) [Example 231, 2-(1-acryloyl-4-(2-(3-hydroxypropoxy)-7-(naphthalen-1-yl)-5,6,7,8-tetrahydropyrido[3,4-d]pyrimidin-4-yl)piperazin-2-yl)acetonitrile], the POC entry at KRas G12C [1] is “C (“C”>50% POC)”. Moreover, the IC50 on KRas G12C [2] was 0.1 to 1000 nM.

Turning to `C=CC(=O)N1CCN(c2nc(OC[C@H]3CCCN3C)nc3c2CCN(c2cccc4ccccc24)C3)CC1CC#N` (stereo partly drawn) [Example 183, 2-[4-[2-[[(2R)-1-methylpyrrolidin-2-yl]methoxy]-7-(1-naphthyl)-6,8-dihydro-5H-pyrido[3,4-d]pyrimidin-4-yl]-1-prop-2-enoyl-piperazin-2-yl]acetonitrile], the POC result at KRas G12C [1] was “C (“C”>50% POC)”. In addition, on KRas G12C [2], the IC50 fell in the range of 0.1 to 1000 nM.

Take `C=C(F)C(=O)N1CCN(c2nc(OCCCN3C[C@@H]4C[C@H]3CO4)nc3c2CCN(c2cccc4cccc(Cl)c24)C3)C[C@@H]1CC#N` [Example 564, 2-[(2S)-4-[7-(8-Chloro-1-naphthyl)-2-[3-[(1S,4S)-2-oxa-5-azabicyclo[2.2.1]heptan-5-yl]propoxy]-6,8-dihydro-5H-pyrido[3,4-d]pyrimidin-4-yl]-1-(2-fluoroprop-2-enoyl)piperazin-2-yl]acetonitrile]: the POC result at KRas G12C [1] is recorded as “C (“C”>50% POC)”. Besides, the IC50 at KRas G12C [2] fell in the range of 0.1 to 1000 nM.

Regarding `C=C(F)C(=O)N1CCN(c2nc(OCCN(C)C)nc3c2CCN(c2cccc4cccc(C)c24)C3)C[C@@H]1CC#N` [Example 559, 2-[(2S)-4-[2-[2-(Dimethylamino)ethoxy]-7-(8-methyl-1-naphthyl)-6,8-dihydro-5H-pyrido[3,4-d]pyrimidin-4-yl]-1-(2-fluoroprop-2-enoyl)piperazin-2-yl]acetonitrile], the POC result on KRas G12C [1] is given as “C (“C”>50% POC)”. Besides, the IC50 at KRas G12C [2] lay in the range of 0.1 to 1000 nM.

Regarding `C=CC(=O)N1CCN(c2nc(OC[C@@H]3CCCN3C)nc3c2CCN(c2c(C)c(C)cc4[nH]ncc24)C3)C[C@@H]1CC#N` [Example 462, 2-[(2S)-4-[7-(5,6-dimethyl-1H-indazol-4-yl)-2-[[(2S)-1-methylpyrrolidin-2-yl]methoxy]-6,8-dihydro-5H-pyrido[3,4-d]pyrimidin-4-yl]-1-prop-2-enoyl-piperazin-2-yl]acetonitrile], the POC entry at KRas G12C [1] is reported as “C (“C”>50% POC)”. Moreover, the IC50 at KRas G12C [2] is 0.1 to 1000 nM.

Consider `C=C(F)C(=O)N1CCN(c2nc(OC[C@H]3C[C@@H](F)CN3C)nc3c2CCN(c2cccc4cccc(Cl)c24)C3)C[C@@H]1CC#N` [Example 558, 2-((S)-4-(7-(8-Chloronaphthalen-1-yl)-2-(((2R,4R)-4-fluoro-1-methylpyrrolidin-2-yl)methoxy)-5,6,7,8-tetrahydropyrido[3,4-d]pyrimidin-4-yl)-1-(2-fluoroacryloyl)piperazin-2-yl)acetonitrile], for which the POC entry at KRas G12C [1] is given as “C (“C”>50% POC)”. Besides, the IC50 on KRas G12C [2] was 0.1 to 1000 nM.

For `Cc1cccc2cccc(N3CCc4c(nc(OC[C@@H]5CCCN5C)nc4N4CCN(C(=O)/C=C/c5cccnc5)[C@@H](CC#N)C4)C3)c12` [Example 496, 2-((S)-4-(7-(8-methylnaphthalen-1-yl)-2-(((S)-1-methylpyrrolidin-2-yl)methoxy)-5,6,7,8-tetrahydropyrido[3,4-d]pyrimidin-4-yl)-1-((E)-3-(pyridin-3-yl)acryloyl)piperazin-2-yl)acetonitrile], the POC result on KRas G12C [1] is “C (“C”>50% POC)”. For the same compound, the concentration for half-maximal inhibition (IC50) at KRas G12C [2] lay in the range of 0.1 to 1000 nM.

Consider `N#CC[C@H]1CN(c2nc(OCCCN3C[C@@H]4C[C@H]3CO4)nc3c2CCN(c2cccc4cccc(Cl)c24)C3)CCN1C(=O)/C=C/CF` [Example 585, 2-((S)-4-(2-(3-((1S,4S)-2-oxa-5-azabicyclo[2.2.1]heptan-5-yl)propoxy)-7-(8-chloronaphthalen-1-yl)-5,6,7,8-tetrahydropyrido[3,4-d]pyrimidin-4-yl)-1-((E)-4-fluorobut-2-enoyl)piperazin-2-yl)acetonitrile], for which the POC result on KRas G12C [1] is “C (“C”>50% POC)”. The half-inhibitory concentration (IC50) at KRas G12C [2] is 0.1 to 1000 nM.

For `C=CC(=O)N1CCN(c2nc(OC[C@@H]3C[C@@H](F)CN3C)nc3c2CCN(c2cccc4ccccc24)C3)CC1CC#N` (stereo partly drawn) [Example 220, 2-(1-acryloyl-4-(2-(((2S,4R)-4-fluoro-1-methylpyrrolidin-2-yl)methoxy)-7-(naphthalen-1-yl)-5,6,7,8-tetrahydropyrido[3,4-d]pyrimidin-4-yl)piperazin-2-yl)acetonitrile], the POC entry on KRas G12C [1] is on record as “C (“C”>50% POC)”. Besides, at KRas G12C [2], the IC50 lay within 0.1 to 1000 nM.

Regarding `Cc1cccc2cccc(N3CCc4c(nc(OC[C@@H]5CCN(C)C5)nc4N4CCN(C(=O)/C=C/CF)[C@@H](CC#N)C4)C3)c12` [Example 581, 2-[(2S)-1-[(E)-4-fluorobut-2-enoyl]-4-[7-(8-methyl-1-naphthyl)-2-[[(3R)-1-methylpyrrolidin-3-yl]methoxy]-6,8-dihydro-5H-pyrido[3,4-d]pyrimidin-4-yl]piperazin-2-yl]acetonitrile], the POC result at KRas G12C [1] was “C (“C”>50% POC)”. Moreover, on KRas G12C [2], the IC50 lay in the range of 0.1 to 1000 nM.

On to `CO[C@@H]1C[C@@H](COc2nc3c(c(N4CCN(C(=O)/C=C/CF)[C@@H](CC#N)C4)n2)CCN(c2cccc4cccc(Cl)c24)C3)N(C)C1` [Example 583, 2-[(2S)-4-[7-(8-chloro-1-naphthyl)-2-[[(2S,4R)-4-methoxy-1-methyl-pyrrolidin-2-yl]methoxy]-6,8-dihydro-5H-pyrido[3,4-d]pyrimidin-4-yl]-1-[(E)-4-fluorobut-2-enoyl]piperazin-2-yl]acetonitrile], for which the POC entry at KRas G12C [1] is “C (“C”>50% POC)”. For the same compound, the IC50 on KRas G12C [2] lay in the range of 0.1 to 1000 nM.

For `C=C(F)C(=O)N1CCN(c2nc(OC[C@@H]3CCCN3CCF)nc3c2CCN(c2cccc4cccc(Cl)c24)C3)C[C@@H]1CC#N` [Example 598, 2-((S)-4-(7-(8-Chloronaphthalen-1-yl)-2-(((S)-1-(2-fluoroethyl)pyrrolidin-2-yl)methoxy)-5,6,7,8-tetrahydropyrido[3,4-d]pyrimidin-4-yl)-1-(2-fluoroacryloyl)piperazin-2-yl)acetonitrile], the POC entry on KRas G12C [1] was “C (“C”>50% POC)”. The IC50 at KRas G12C [2] fell in the range of 0.1 to 1000 nM.
